Measurements published in patent US20110065645A1, “Compositions and Methods for Modulating Neuron Degeneration and Neuron Guidance” (The Regents of the University of California, priority 2009, published 2011).

Tests used:
commissural axons = experiment: Open book spinal cord explant treatments and DiI injections (midline pathfinding); assay type: cell-based; details: rat E13 open-book; 5E1 100 ng/ml, Forskolin 25 μM, KT5720 25 μM; 12-14 hrs
Source text: Blocking Shh activity causes midline guidance defects. To determine the role of Shh in regulating midline pathfinding, we analyzed the trajectory of commissural axons in rat E13 “open-book” spinal cord preparations treated with the function-blocking antibody for Shh, 5E1. The projections of these commissural axons were visualized by injecting the lipophilic dye, DiI, to the dorsal margin of the spinal cord (FIG. 32J). In “open-book” explants, commissural axons can recapitulate the in vivo pathfinding and project from the dorsal spinal cord margin across the floor plate and then turn sharply anteriorly on the contralateral side.^(7,8). […] Normally, after midline crossing, commissural axons make a sharp anterior turn and either project into the ventral funiculus alongside the floor plate or fan out in a highly organized manner to grow laterally into the lateral funiculus^(7) (FIG. 32G). […] The spinal cord midline is a three-dimensional structure. […] Some of the injection sites were therefore scored for more than one category of phenotypes. […]
Shh may induce Sema repulsion by reducing cAMP/PKA signaling. […] In “open-book” explant cultures we treated commissural axons with the activator for adenylyl cyclase (and consequently cAMP), Forskolin and the PKA inhibitor KT5720 and analyzed commissural axon pathfidning by DiI tracing as shown in FIG. 32J. […]

PKA = experiment: Western blot of activated phospho-PKA (Thr197) in dissociated commissural neurons; assay type: cell-based, rat; details: Shh-N 2.5 μg/ml for one hour; KT5720 25 μM for 15 minutes
Procedure: To confirm that PKA activity can be reduced in commissural neurons exposed to Shh, we treated dissociated spinal cord commissural neurons with Shh and analyzed the level of activated PKA. 24 hr after plating, commissural neurons were serum starved overnight and then treated with 2.5 μg/ml (150 nM) of Shh-N recombinant protein (R&D) for one hour prior to lysate collection. Forskolin (25 μM), and the PKA inhibitor, KT5720 (25 μM) were added to the commissural neuron culture as controls for 15 minutes before lysis. We then tested these lysates for levels of activated PKA with an antibody that specifically recognizes an activated form of the catalytic domain of PKA (phosphorylated at Thr197).
Dissociated commissural neuronal culture. Spinal cords were isolated from rat E13 embryos and commissural neurons were dissociated as previously described.^(8) In brief, embryos were treated with Dispase I (0.25 mg/ml; D4818, Sigma) for 5 minutes prior isolation of spinal cords, followed by collection of spinal cord dorsal domains by microdissection and incubation with Trypsin (1 mg/ml; T47-99, Sigma) for 10-12 min in a 37° C. water bath. The tissue was then triturated with flamed glass pipettes and a single cell suspension was plated on poly-D-lysine (PDL; 20 μg/ml) and laminin (10 μg/ml) coated coverslips or 12 well plates (Corning). More than 90% cells in these cultures express TAG-1, a marker for spinal cord commissural neurons (FIG. 35B). 10^5 dissociated cells were plated on PDL/laminin coated coverslips and cultured for 24 hrs before processed for immunohistochemistry as described above. For Western blot analysis, 10^6 dissociated cells were plated on PDL/laminin coated 12-well tissue culture plates and cultured initially for 24 hrs in dorsal explant media (replenished daily) then changed to low serum medium overnight prior to treatments. […]

Which results are given for CCCCCCOC(=O)[C@]1(O)C[C@@H]2O[C@@]1(C)n1c3ccccc3c3c4c(c5c6ccccc6n2c5c31)C(=O)NC4 [KT5720, reference compound]?
commissural axon midline pathfinding (DiI tracing) (commissural axons): prevented a vast number of axons from entering the floor plate; level of activated PKA (PKA): reduce the level of activated PKA
